Assay results reported in patent US12097200B2, “Combination of BI853520 with chemotherapeutic drugs” (INXMED (NANJING) CO., LTD., priority 2020, dated 2024).
Where “and” joins values, the source holds several entries; their conditions need not be identical. Equal entries are not always repeated.

How the values were obtained:
[1] = system: CTG-1627; assay: Antitumor activity in ovarian cancer PDX model CTG-1627; assay type: in vivo, mouse; details: 28 days until end of test, doses as Table 3
Description: (§3) Body weights (at start of dosing) were approximately 20 grams. […] Immunocompromised female mice were housed in HEPA ventilated cages (Innocage® IVC, Innovive USA) at 68-74° F. (20-23° C.) and 30-70% humidity under a 12-hour light/12-hour dark cycle. […] Animals with >10% body weight loss compared to day 0 received DietAel 76A (ClearH2O®, Portland, ME) for free. There were 3 mice in each group.
(§4) Mice were implanted with tumor cells from the ChampionsTumorGraft® ovarian model, which was established from patients previously treated with platinum-based therapy. After tumors reached 1000-1500 mm^3, they were collected, and tumor fragments SCs were implanted in the left flank of female pre-study mice. Each study animal was implanted with a specific passage batch. Tumor volume was measured twice a week with calipers to monitor tumor growth, and tumor volume (TV) was calculated using the formula (0.52×[length×width^2]). […] After initiation of dosing, animals were weighed daily using a digital scale and TV was measured twice weekly. […]
(§5) Inhibitory effect on tumor growth was determined by calculating TGI (100%×[1−(final MTV−initial MTV of the treatment group)/(final MTV−initial MTV of the control group)]). […]
(§6) CR: no TV could be detected (<4×4 mm^2), in 2 consecutive measurements […]

[2] = system: CTG-1180; assay: Antitumor activity in ovarian cancer PDX model CTG-1180; assay type: in vivo, mouse; details: CTG-1180 (carboplatin and paclitaxel-resistant); 42 days until end of test; doses as Table 3
Description: as §3, §4, §5, §6

[3] = system: CTG-0257; assay: Antitumor activity in ovarian cancer PDX model CTG-0257; assay type: in vivo, mouse; details: 30 days until end of test, doses as Table 3
Description: as §3, §4, §5, §6

[4] = system: HS 746T cells; assay: Antitumor activity in mouse xenograft model of human gastric cancer (HS 746T); assay type: in vivo; details: HS 746T xenograft, combination of both
Description: (§1) For tumor volume, absolute values were used.
(§2) Appropriate statistical methods were used for evaluation.
HS 746T: Approximately 6 week old mice.

[5] = system: CTG-0868; assay: Antitumor activity in ovarian cancer PDX model CTG-0868; assay type: in vivo, mouse; details: 25 days until end of test, doses as Table 3
Description: as §3, §4, §5, §6

[6] = system: CTG-1166; assay: Antitumor activity in ChampionsTumorGraft PDX ovarian cancer model CTG-1166
Description: as §3
Mice were implanted with tumor cells from the ChampionsTumorGraft® ovarian model, which was established from patients previously treated with platinum-based therapy. After tumors reached 1000-1500 mm^3, they were collected, and tumor fragments SCs were implanted in the left flank of female pre-study mice. Each study animal was implanted with a specific passage batch. Tumor volume was measured twice a week with calipers to monitor tumor growth, and tumor volume (TV) was calculated using the formula (0.52×[length×width^2]). When TV reached approximately 250-350 mm^3 (average 300 mm^3), animals were matched to tumor size and assigned to the control or treatment groups (study mice) and dosing started on day 0. After initiation of dosing, animals were weighed daily using a digital scale and TV was measured twice weekly. The study was terminated when the mean tumor volume in the control group reached approximately 1500 mm^3 or until day 60. In some models, the study was extended beyond Day 60 and dosing was also extended to the end of the study. Individual animals could be removed from the study when tumor volume reaches approximately 1500 mm^3.
Control 1: 0.5% Natrosol; control 2: 5% sterile glucose.
The control group for oral administration was 0.5% Natrosol. The control group for intravenous administration was 5% sterile glucose.
Carboplatin was a pre-formulated 10 mg/mL stock solution. PLD was a pre-formulated 2 mg/mL stock solution. Paclitaxel was a pre-formulated 6 mg/mL stock solution. These standard chemotherapeutic drugs were provided by Champions.
Data for each group, including body weight for each animal and mean body weight, were recorded, and the percentage change in mean body weight (% vD0) for each group relative to Day 0 was recorded, and the % vD0 was plotted at the completion of the study.
Animal deaths were recorded daily and determined as drug-related (D), technical (T), tumor-related (B), or unknown (U) based on weight loss and by visual inspection. […] The maximum mean % vD0 (body weight nadir) for each treatment group was reported at the end of the study.
Inhibitory effect on tumor growth was determined by calculating TGI (100%×[1−(final MTV−initial MTV of the treatment group)/(final MTV−initial MTV of the control group)]). Treatment was started on day 0. Tumor volumes in the treatment group were compared with those in the control group on the day the study was completed.
Other endpoints used to assess efficacy included number of CR, PR and TFS. PR and TFS were considered to exclude CR.
PR: TV≤30% of TV on day 0, in 2 consecutive measurements
CR: no TV could be detected (<4×4 mm^2), in 2 consecutive measurements
TFS: CR that persisted until the study was completed
Data were used for statistical analysis at the end of the study. Statistical comparisons of tumor volumes were performed using one-way analysis of variance followed by Newman-Keuls multiple comparison test to compare differences between all groups. Selected endpoints included as many groups as possible and as many animals per group as possible.
Tumor volumes from animals removed early due to tumor volume ≥1500 mm^3 were carried forward for analysis, but not more than 4 consecutive measurement time points.

[7] = system: KYSE-270 cells; assay: Antitumor activity in mouse xenograft model of human esophageal cancer (KYSE-270); assay type: in vivo; details: KYSE-270 xenograft, combination of both
Description: as §1, §2
Mice were approximately 8-10 weeks old.
KYSE-270 was a cell line for esophageal cancer (Public Health England, Cat. No. 94072021).

[8] = BI 853520 50 mg/kg qd, docetaxel 10 mg/kg q7d
[9] = CTG-1166 PDX, Day 0-56, n=3 per group, doses as Table 4
[10] = CTG-1166 PDX, day 17, BI 853520 50 mg/kg PO BID, PLD 3 mg/kg IV q7d, carboplatin 25 mg/kg IP q7dx3 + paclitaxel 20 mg/kg IV q7dx3
[11] = BI 853520 50 mg/kg qd, paclitaxel 10 mg/kg q7d

SMILES: COc1cc(C(=O)NC2CCN(C)CC2)c(F)cc1Nc1ncc(C(F)(F)F)c(Oc2cccc3c2C(=O)N(C)C3)n1 [BI 853520, 2-fluoro-5-methoxy-4-[(4-(2-methyl-3-oxo-2,3-dihydro-1H-isoindole-4-oxy)-5-trifluoromethyl-pyrimidin-2-yl)amino]-N-(1-methyl-piperidin-4-yl)benzamide]
- TGI (%) [1]: 50%
- TGI (%) [2]: 33%
- TGI (%) [3]: 67%
- Median tumor volume ([4]; day 24 (withdrawal on day 28), BI 853520 50 mg/kg qd by gavage, docetaxel 10 mg/kg q7d i.v.): 229 mm^3
- Antitumor effect (in words) [4, 8]: had inhibitory effect
- Change in median body weight [4, 8]: 7.3%
- TGI [4, 8]: 93%
- Tumor regression (animals with regression/animals in group) [4, 8]: 1 of 8 and 1/8
- TGI (%) [5]: 54%
- #CR (complete responses) [6, 9]: 0/0/0
- #PR (partial responses) [6, 9]: 0/0/0
- #TFS (tumor-free survivors) [6, 9]: 0/0/0
- Body weight (day 17) % vD0 ([6]; CTG-1166 PDX, day 17, change in mean body weight relative to Day 0): 4.0%
- % TGI [6, 10]: 89%
- Tumor volume (day 17) Mean ± SEM [6, 10]: 366 ± 78 mm^3
- Dead Total ([6]; CTG-1166 PDX, animal deaths, n=3 per group): 0
- Body weight nadir Day ([6]; CTG-1166 PDX, day of body weight nadir): 13
- Antitumor activity (in words) ([6]; CTG-1166 PDX, doses as Table 4): significant inhibitory effect on tumor growth
- Body weight (day 17) Mean ± SEM ([6]; mouse, in vivo): 26.7 ± 0.4 g
- Body weight nadir % vD0(max) ([6]; mouse, in vivo, po, 50 mg/kg): −0.7%
- Median tumor volume ([7]; day 13, BI 853520 50 mg/kg qd by gavage, paclitaxel 10 mg/kg q7d i.v.): 126 mm^3
- TGI ([7]; day 13, BI 853520 50 mg/kg qd, paclitaxel 10 mg/kg q7d): 106%
- Antitumor effect (in words) [7, 11]: had inhibitory effect on tumor growth
- Change in median body weight [7, 11]: 2.8%
- Tumor regression (animals with regression/animals in group) [7, 11]: 6 of 7 and 6/7
